Measurements: ChEMBL document CHEMBL4507282, “Data for DCP probe BI-1950” (2021)

What was measured:
[1] = biological target: Dual specificity mitogen-activated protein kinase kinase 7 (Homo sapiens) (UniProt O14733); conditions: Compound concentration 1000.0 nM
[2] = biological target: Ribosomal protein S6 kinase beta-1 (Homo sapiens) (UniProt P23443); conditions: Compound concentration 1000.0 nM
[3] = biological target: AP2-associated protein kinase 1 (Homo sapiens) (UniProt Q2M2I8); conditions: Compound concentration 1000.0 nM
[4] = biological target: Alpha-1B adrenergic receptor (Homo sapiens) (UniProt P35368); conditions: Compound concentration 10.0 uM
[5] = biological target: Ephrin type-A receptor 5 (Homo sapiens) (UniProt P54756); conditions: Compound concentration 1000.0 nM
[6] = biological target: Dual specificity protein kinase TTK (Homo sapiens) (UniProt P33981); conditions: Compound concentration 1000.0 nM
[7] = biological target: Protein-tyrosine kinase 6 (Homo sapiens) (UniProt Q13882); conditions: Compound concentration 1000.0 nM
[8] = biological target: Cyclin-dependent kinase 17 (Homo sapiens) (UniProt Q00537); conditions: Compound concentration 1000.0 nM
[9] = biological target: Calcium/calmodulin-dependent protein kinase type II subunit alpha (Homo sapiens) (UniProt Q9UQM7); conditions: Compound concentration 1000.0 nM
[10] = biological target: Serine/threonine-protein kinase 38-like (Homo sapiens) (UniProt Q9Y2H1); conditions: Compound concentration 1000.0 nM
[11] = biological target: Serine/threonine-protein kinase WNK4 (Homo sapiens) (UniProt Q96J92); conditions: Compound concentration 1000.0 nM
[12] = biological target: Serine/threonine-protein kinase RIO3 (Homo sapiens) (UniProt O14730); conditions: Compound concentration 1000.0 nM
[13] = biological target: Serine/threonine-protein kinase WNK2 (Homo sapiens) (UniProt Q9Y3S1); conditions: Compound concentration 1000.0 nM
[14] = tested on: Epidermal growth factor receptor (Homo sapiens), P00533 [UNDEFINED MUTATION]; conditions: Compound concentration 1000.0 nM
[15] = biological target: Mitogen-activated protein kinase 6 (Homo sapiens) (UniProt Q16659); conditions: Compound concentration 1000.0 nM
[16] = biological target: Mitotic checkpoint serine/threonine-protein kinase BUB1 (Homo sapiens) (UniProt O43683); conditions: Compound concentration 1000.0 nM
[17] = biological target: Ribosomal protein S6 kinase alpha-5 (Homo sapiens) (UniProt O75582); conditions: Compound concentration 1000.0 nM
[18] = biological target: MAP kinase-activated protein kinase 2 (Homo sapiens) (UniProt P49137); conditions: Compound concentration 1000.0 nM
[19] = biological target: Phosphorylase b kinase gamma catalytic chain, skeletal muscle/heart isoform (Homo sapiens) (UniProt Q16816); conditions: Compound concentration 1000.0 nM
[20] = biological target: Serine/threonine-protein kinase Nek3 (Homo sapiens) (UniProt P51956); conditions: Compound concentration 1000.0 nM
[21] = tested on: Epidermal growth factor receptor (Homo sapiens), P00533 [T790M]; conditions: Compound concentration 1000.0 nM
[22] = biological target: Mitogen-activated protein kinase kinase kinase kinase 3 (Homo sapiens) (UniProt Q8IVH8); conditions: Compound concentration 1000.0 nM
[23] = biological target: Dual specificity tyrosine-phosphorylation-regulated kinase 2 (Homo sapiens) (UniProt Q92630); conditions: Compound concentration 1000.0 nM
[24] = biological target: TRAF2 and NCK-interacting protein kinase (Homo sapiens) (UniProt Q9UKE5); conditions: Compound concentration 1000.0 nM
[25] = biological target: Tyrosine-protein kinase Fyn (Homo sapiens) (UniProt P06241); conditions: Compound concentration 1000.0 nM
[26] = biological target: Mitogen-activated protein kinase kinase kinase 10 (Homo sapiens) (UniProt Q02779); conditions: Compound concentration 1000.0 nM
[27] = biological target: Mitogen-activated protein kinase kinase kinase 20 (Homo sapiens) (UniProt Q9NYL2); conditions: Compound concentration 1000.0 nM
[28] = biological target: Serine/threonine-protein kinase Nek9 (Homo sapiens) (UniProt Q8TD19); conditions: Compound concentration 1000.0 nM
[29] = biological target: Mitogen-activated protein kinase 3 (Homo sapiens) (UniProt P27361); conditions: Compound concentration 1000.0 nM
[30] = tested on: Mast/stem cell growth factor receptor Kit (Homo sapiens), P10721 [L576P]; conditions: Compound concentration 1000.0 nM
[31] = biological target: Mitogen-activated protein kinase kinase kinase 12 (Homo sapiens) (UniProt Q12852); conditions: Compound concentration 1000.0 nM
[32] = biological target: Dual specificity testis-specific protein kinase 1 (Homo sapiens) (UniProt Q15569); conditions: Compound concentration 1000.0 nM
[33] = biological target: 5-hydroxytryptamine receptor 2B (Homo sapiens) (UniProt P41595); conditions: Compound concentration 10.0 uM
[34] = biological target: Insulin receptor-related protein (Homo sapiens) (UniProt P14616); conditions: Compound concentration 1000.0 nM
[35] = biological target: TGF-beta receptor type-1 (Homo sapiens) (UniProt P36897); conditions: Compound concentration 1000.0 nM
[36] = biological target: Cyclin-dependent kinase 11A (Homo sapiens) (UniProt Q9UQ88); conditions: Compound concentration 1000.0 nM
[37] = biological target: ALK tyrosine kinase receptor (Homo sapiens) (UniProt Q9UM73); conditions: Compound concentration 1000.0 nM
[38] = biological target: Cyclin-dependent kinase 15 (Homo sapiens) (UniProt Q96Q40); conditions: Compound concentration 1000.0 nM
[39] = tested on: Phosphatidylinositol 4,5-bisphosphate 3-kinase catalytic subunit alpha isoform (Homo sapiens), P42336 [E545A]; conditions: Compound concentration 1000.0 nM
[40] = biological target: Proto-oncogene tyrosine-protein kinase receptor Ret (Homo sapiens) (UniProt P07949); conditions: Compound concentration 1000.0 nM
[41] = biological target: 5-hydroxytryptamine receptor 2A (Homo sapiens) (UniProt P28223); conditions: Compound concentration 10.0 uM
[42] = biological target: MAP kinase-activated protein kinase 5 (Homo sapiens) (UniProt Q8IW41); conditions: Compound concentration 1000.0 nM
[43] = biological target: Rhodopsin kinase GRK7 (Homo sapiens) (UniProt Q8WTQ7); conditions: Compound concentration 1000.0 nM
[44] = biological target: Cyclin-dependent kinase 4 (Homo sapiens) (UniProt P11802); conditions: Compound concentration 1000.0 nM
[45] = tested on: Phosphatidylinositol 4,5-bisphosphate 3-kinase catalytic subunit alpha isoform (Homo sapiens), P42336 [E542K]; conditions: Compound concentration 1000.0 nM

Chain of Alpha-1B adrenergic receptor (Homo sapiens) (P35368 whole entry): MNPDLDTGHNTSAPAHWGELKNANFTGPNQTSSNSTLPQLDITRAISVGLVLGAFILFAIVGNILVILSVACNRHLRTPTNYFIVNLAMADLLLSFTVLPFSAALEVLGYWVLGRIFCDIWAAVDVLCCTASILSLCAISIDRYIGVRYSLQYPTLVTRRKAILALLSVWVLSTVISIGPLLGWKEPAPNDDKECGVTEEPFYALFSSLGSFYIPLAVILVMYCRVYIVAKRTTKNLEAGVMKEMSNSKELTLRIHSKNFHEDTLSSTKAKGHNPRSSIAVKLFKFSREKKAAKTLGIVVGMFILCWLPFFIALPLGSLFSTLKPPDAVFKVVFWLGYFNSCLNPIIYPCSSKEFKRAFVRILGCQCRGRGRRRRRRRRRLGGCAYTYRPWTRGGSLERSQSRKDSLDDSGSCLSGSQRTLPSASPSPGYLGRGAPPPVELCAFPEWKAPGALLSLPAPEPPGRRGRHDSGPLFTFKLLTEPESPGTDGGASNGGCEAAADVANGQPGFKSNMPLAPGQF
Chain of TGF-beta receptor type-1 (Homo sapiens) (P36897 whole entry): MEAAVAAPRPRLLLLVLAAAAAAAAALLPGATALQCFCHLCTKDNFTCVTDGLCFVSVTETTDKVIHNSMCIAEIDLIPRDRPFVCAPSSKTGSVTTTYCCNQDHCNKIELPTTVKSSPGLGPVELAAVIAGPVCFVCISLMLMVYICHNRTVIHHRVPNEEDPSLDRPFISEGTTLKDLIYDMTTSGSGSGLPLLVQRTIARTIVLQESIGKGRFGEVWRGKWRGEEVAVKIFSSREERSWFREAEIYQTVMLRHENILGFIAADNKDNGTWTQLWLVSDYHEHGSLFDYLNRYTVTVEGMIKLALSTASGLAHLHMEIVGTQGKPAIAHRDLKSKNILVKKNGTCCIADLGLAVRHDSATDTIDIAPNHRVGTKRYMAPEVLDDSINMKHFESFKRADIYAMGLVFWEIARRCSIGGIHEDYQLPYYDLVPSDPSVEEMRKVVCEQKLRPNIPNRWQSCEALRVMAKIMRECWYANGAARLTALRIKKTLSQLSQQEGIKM
Chain of Phosphatidylinositol 4,5-bisphosphate 3-kinase catalytic subunit alpha isoform (Homo sapiens), P42336 [E545A] (P42336 whole entry E545A, canonical isoform): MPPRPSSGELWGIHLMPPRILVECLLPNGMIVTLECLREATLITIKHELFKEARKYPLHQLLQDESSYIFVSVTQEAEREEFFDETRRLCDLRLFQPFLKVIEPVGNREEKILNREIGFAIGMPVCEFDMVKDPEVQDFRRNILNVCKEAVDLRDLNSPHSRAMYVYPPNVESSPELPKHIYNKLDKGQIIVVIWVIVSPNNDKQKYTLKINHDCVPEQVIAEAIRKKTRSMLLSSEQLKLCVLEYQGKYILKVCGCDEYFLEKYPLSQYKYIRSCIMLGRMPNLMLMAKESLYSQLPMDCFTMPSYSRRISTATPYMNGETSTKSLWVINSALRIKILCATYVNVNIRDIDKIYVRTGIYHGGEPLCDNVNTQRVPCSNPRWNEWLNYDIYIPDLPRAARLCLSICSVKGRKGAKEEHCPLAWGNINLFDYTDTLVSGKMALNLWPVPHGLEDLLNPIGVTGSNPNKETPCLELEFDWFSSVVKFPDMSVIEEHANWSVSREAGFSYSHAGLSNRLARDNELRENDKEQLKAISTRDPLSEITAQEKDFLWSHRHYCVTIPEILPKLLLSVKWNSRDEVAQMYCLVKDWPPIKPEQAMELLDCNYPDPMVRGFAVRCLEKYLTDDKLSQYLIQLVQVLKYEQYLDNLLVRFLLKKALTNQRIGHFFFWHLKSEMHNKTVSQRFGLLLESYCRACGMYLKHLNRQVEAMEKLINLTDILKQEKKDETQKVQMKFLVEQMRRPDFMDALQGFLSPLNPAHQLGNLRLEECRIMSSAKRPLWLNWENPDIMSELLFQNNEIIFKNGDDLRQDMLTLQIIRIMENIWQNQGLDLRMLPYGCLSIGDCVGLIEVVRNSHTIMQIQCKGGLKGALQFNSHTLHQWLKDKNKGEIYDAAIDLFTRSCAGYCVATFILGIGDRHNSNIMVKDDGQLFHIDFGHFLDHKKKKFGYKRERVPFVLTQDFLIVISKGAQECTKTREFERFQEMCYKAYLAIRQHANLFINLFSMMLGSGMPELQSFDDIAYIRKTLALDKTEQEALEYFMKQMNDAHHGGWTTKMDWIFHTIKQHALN
Chain of Rhodopsin kinase GRK7 (Homo sapiens) (Q8WTQ7 whole entry): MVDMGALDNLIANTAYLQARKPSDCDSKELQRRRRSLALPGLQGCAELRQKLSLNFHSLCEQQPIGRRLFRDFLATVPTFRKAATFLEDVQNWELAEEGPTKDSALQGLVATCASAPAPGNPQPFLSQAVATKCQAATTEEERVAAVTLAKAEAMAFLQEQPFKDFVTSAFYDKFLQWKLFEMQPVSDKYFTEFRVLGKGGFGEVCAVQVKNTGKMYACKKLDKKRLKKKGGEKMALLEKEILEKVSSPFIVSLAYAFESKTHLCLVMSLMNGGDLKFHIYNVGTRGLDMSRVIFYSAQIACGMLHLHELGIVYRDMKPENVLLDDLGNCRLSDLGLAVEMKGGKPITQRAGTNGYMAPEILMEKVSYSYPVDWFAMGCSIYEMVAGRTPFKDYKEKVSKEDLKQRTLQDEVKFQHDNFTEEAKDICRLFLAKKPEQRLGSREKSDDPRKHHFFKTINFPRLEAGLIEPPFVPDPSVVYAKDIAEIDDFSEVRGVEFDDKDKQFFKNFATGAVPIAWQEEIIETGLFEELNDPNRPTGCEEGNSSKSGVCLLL
Chain of Tyrosine-protein kinase Fyn (Homo sapiens) (P06241 2-537 limits assumed): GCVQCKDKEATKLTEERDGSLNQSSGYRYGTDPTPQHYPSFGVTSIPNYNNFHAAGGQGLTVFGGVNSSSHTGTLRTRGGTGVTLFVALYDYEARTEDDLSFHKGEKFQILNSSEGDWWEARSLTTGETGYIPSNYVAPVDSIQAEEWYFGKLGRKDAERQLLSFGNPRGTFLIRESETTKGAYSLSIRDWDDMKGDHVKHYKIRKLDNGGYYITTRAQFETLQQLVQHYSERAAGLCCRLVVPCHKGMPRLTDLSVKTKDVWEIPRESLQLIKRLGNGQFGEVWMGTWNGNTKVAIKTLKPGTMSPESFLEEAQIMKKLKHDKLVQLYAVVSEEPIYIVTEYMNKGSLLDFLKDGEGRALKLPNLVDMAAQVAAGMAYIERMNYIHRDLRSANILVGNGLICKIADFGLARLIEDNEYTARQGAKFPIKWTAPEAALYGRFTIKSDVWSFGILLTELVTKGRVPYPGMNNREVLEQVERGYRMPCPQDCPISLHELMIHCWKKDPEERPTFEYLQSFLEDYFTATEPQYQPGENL
Chain of Serine/threonine-protein kinase Nek3 (Homo sapiens) (P51956 whole entry): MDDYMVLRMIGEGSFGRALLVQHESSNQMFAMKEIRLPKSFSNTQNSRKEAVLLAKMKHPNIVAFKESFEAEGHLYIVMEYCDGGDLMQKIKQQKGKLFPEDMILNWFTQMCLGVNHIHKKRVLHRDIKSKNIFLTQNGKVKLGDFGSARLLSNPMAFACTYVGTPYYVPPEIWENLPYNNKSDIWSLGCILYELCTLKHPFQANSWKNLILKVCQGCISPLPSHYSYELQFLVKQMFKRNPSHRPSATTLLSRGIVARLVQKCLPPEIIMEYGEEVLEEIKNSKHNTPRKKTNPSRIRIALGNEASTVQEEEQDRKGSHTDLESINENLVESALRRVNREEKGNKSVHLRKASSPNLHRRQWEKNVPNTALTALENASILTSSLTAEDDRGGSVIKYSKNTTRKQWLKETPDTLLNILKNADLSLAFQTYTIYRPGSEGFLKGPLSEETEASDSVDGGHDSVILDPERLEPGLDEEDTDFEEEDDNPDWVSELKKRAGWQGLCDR
Chain of AP2-associated protein kinase 1 (Homo sapiens) (Q2M2I8 whole entry, looked up): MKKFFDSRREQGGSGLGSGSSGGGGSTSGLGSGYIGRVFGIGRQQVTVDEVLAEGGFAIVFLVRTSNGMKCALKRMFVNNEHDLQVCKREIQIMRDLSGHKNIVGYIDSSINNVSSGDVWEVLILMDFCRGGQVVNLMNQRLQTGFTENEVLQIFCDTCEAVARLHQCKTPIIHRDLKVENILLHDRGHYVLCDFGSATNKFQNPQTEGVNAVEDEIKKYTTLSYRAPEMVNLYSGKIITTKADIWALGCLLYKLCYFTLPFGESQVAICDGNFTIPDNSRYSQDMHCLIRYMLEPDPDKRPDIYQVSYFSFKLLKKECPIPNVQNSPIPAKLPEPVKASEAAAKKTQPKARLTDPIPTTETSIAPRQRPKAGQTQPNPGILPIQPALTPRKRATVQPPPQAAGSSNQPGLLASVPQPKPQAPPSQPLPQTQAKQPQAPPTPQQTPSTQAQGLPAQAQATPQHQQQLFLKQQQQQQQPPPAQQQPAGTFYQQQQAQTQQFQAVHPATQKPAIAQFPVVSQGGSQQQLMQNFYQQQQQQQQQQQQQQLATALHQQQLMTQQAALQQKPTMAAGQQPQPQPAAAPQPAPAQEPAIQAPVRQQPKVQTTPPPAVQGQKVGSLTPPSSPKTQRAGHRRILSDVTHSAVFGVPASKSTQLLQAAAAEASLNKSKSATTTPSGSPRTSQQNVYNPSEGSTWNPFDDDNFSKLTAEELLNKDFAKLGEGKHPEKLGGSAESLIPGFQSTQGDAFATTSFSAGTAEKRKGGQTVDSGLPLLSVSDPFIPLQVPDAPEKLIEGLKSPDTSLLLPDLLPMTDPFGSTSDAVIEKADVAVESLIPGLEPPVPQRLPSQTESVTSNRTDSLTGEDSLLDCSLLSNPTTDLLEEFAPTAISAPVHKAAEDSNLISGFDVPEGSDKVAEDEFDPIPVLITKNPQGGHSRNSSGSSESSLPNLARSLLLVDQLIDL
Chain of Phosphorylase b kinase gamma catalytic chain, skeletal muscle/heart isoform (Homo sapiens) (Q16816 whole entry, looked up, canonical isoform): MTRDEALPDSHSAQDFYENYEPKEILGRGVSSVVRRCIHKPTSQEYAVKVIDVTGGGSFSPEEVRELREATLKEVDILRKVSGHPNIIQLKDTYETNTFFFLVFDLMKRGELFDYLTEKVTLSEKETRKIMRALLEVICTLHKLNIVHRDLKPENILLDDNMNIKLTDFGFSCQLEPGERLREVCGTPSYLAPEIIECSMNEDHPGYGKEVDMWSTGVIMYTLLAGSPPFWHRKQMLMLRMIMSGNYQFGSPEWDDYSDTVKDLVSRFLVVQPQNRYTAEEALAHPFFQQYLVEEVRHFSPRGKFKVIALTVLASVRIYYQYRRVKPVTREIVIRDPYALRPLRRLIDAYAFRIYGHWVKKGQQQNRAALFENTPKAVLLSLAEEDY

Structure (SMILES): C[C@H](NC(=O)c1cnc2n1[C@](C)(Cc1ccc(C#N)cc1)C(=O)N2c1cc(Cl)c(F)c(Cl)c1)C(=O)NC1(c2ccccn2)CC1 [BI 1950]
- residual activity [1]: 100%
- residual activity [2]: 100%
- residual activity [3]: 100%
- inhibition [4]: 2.35%
- residual activity [5]: 100%
- residual activity [6]: 100%
- residual activity [7]: 92%
- residual activity [8]: 100%
- residual activity [9]: 96%
- residual activity [10]: 49%
- residual activity [11]: 100%
- residual activity [12]: 100%
- residual activity [13]: 100%
- residual activity [14]: 100%
- residual activity [15]: 100%
- residual activity [16]: 100%
- residual activity [17]: 100%
- residual activity [18]: 100%
- residual activity [19]: 100%
- residual activity [20]: 100%
- residual activity [21]: 95%
- residual activity [22]: 100%
- residual activity [23]: 98%
- residual activity [24]: 100%
- residual activity [25]: 70%
- residual activity [26]: 100%
- residual activity [27]: 100%
- residual activity [28]: 100%
- residual activity [29]: 91%
- residual activity [30]: 83%
- residual activity [31]: 100%
- residual activity [32]: 100%
- inhibition [33]: 17.2%
- residual activity [34]: 100%
- residual activity [35]: 82%
- residual activity [36]: 100%
- residual activity [37]: 100%
- residual activity [38]: 100%
- residual activity [39]: 100%
- residual activity [40]: 100%
- inhibition [41]: 9.3%
- residual activity [42]: 96%
- residual activity [43]: 100%
- residual activity [44]: 100%
- residual activity [45]: 100%

Structure (SMILES): C[C@@]1(Cc2ccc(C#N)cc2)C(=O)N(c2cc(Cl)cc(Cl)c2)c2ncc(C(=O)NC3(c4nc(C5CCC5)no4)CC3)n21 [BI 9446]
- residual activity [1]: 100%
- residual activity [2]: 100%
- residual activity [3]: 100%
- inhibition [4]: 23.8%
- residual activity [5]: 100%
- residual activity [6]: 94%
- residual activity [7]: 100%
- residual activity [8]: 100%
- residual activity [9]: 89%
- residual activity [10]: 48%
- residual activity [11]: 100%
- residual activity [12]: 100%
- residual activity [13]: 100%
- residual activity [14]: 100%
- residual activity [15]: 100%
- residual activity [16]: 100%
- residual activity [17]: 100%
- residual activity [18]: 100%
- residual activity [19]: 100%
- residual activity [20]: 100%
- residual activity [21]: 86%
- residual activity [22]: 78%
- residual activity [23]: 93%
- residual activity [24]: 100%
- residual activity [25]: 89%
- residual activity [26]: 100%
- residual activity [27]: 100%
- residual activity [28]: 86%
- residual activity [29]: 86%
- residual activity [30]: 100%
- residual activity [31]: 100%
- residual activity [32]: 100%
- inhibition [33]: 15.5%
- residual activity [34]: 100%
- residual activity [35]: 100%
- residual activity [36]: 100%
- residual activity [37]: 100%
- residual activity [38]: 97%
- residual activity [39]: 100%
- residual activity [40]: 100%
- inhibition [41]: 31.9%
- residual activity [42]: 100%
- residual activity [43]: 100%
- residual activity [44]: 100%
- residual activity [45]: 83%
